Source: ChEMBL document CHEMBL1201862, “PubChem BioAssay data set” (2004)
“And” between values parts separate entries of the source, which are not always exact repeats. Equal entries are not always repeated. The source made the active and inactive calls.

What was measured:
[1] = target: T1, DNA dC->dU-editing enzyme APOBEC-3A (Homo sapiens, UniProt P31941); test: SAR analysis of small molecule inhibitors of APOBEC3A DNA Deaminase via a fluorescence-based single-stranded DNA deaminase assay - Set 2.; type: functional; conditions: read-out: IC50_Mean
T1 sequence (P31941 whole entry): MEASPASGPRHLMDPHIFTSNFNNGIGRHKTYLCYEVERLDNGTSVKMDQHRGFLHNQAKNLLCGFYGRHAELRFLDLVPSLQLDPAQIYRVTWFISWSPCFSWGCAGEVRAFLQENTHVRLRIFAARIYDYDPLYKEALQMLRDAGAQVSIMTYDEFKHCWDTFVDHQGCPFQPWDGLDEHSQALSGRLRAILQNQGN

[2] = luciferase reporter signal suppression in cells – H4 neuroglioma cells, luminescence, dose response (AID 1990); type: functional, cell-based
[3] = target: T1, DNA dC->dU-editing enzyme APOBEC-3A; test: Dose Response confirmation of small molecule APOBEC3A DNA Deaminase Inhibitors via a fluorescence-based single-stranded DNA deaminase assay. [Related pubchem assays (depositor defined):AID493011, AID493024]; type: functional
Beta-lactamase [4] = target: Beta-lactamase (Pseudomonas aeruginosa, UniProt Q79MP6);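 also: biochemical dose-response test of metallo-beta-lactamase enzyme inhibition, read out by epi-absorbance; purified recombinant IMP-1 metallo-beta-lactamase with nitrocefin as substrate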
Beta-lactamase (Pseudomonas aeruginosa, UniProt Q79MP6), sequence (Q79MP6 whole entry): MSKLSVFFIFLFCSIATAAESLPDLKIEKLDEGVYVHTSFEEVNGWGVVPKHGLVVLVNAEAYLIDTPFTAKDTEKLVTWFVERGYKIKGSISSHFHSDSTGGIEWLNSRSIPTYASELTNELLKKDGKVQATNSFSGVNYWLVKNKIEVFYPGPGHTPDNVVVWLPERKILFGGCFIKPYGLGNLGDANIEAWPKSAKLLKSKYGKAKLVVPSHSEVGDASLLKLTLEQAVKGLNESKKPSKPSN

[5] = target: T1, DNA dC->dU-editing enzyme APOBEC-3A; test: SAR analysis of small molecule inhibitors of APOBEC3A DNA Deaminase via a fluorescence-based single-stranded DNA deaminase assay.; type: functional; conditions: read-out: IC50_Mean
[6] = target: FAD-linked sulfhydryl oxidase ALR (Homo sapiens, UniProt P55789); test: ALR-catalysed DTT oxidation blockers – biochemical, H2O2 detection, luminescence, cherry-pick, dose response (AID 493248)
[7] = NIH3T3 cell viability loss – ATP luminescence, mouse fibroblasts, counter-screen, dose response (AID 2010); type: functional, cell-based;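 also: cells exposed to compound for about 90 hours before reading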
Beta-lactamase [8] = target: Beta-lactamase (Salmonella choleraesuis (strain SC-B67), UniProt Q5J463)
Beta-lactamase (Salmonella choleraesuis (strain SC-B67), UniProt Q5J463), sequence (Q5J463 whole entry): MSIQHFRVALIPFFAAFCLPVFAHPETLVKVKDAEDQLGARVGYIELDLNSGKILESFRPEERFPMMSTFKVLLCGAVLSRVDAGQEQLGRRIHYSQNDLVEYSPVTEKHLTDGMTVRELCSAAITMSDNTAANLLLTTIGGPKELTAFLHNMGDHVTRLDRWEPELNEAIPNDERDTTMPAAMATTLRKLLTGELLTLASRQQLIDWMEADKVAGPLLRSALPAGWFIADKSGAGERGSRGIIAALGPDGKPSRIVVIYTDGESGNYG

[9] = target: T2, DNA dC->dU-editing enzyme APOBEC-3G (Homo sapiens, UniProt Q9HC16); test: SAR analysis of small molecule inhibitors of APOBEC3G DNA Deaminase via a fluorescence-based single-stranded DNA deaminase assay - Set 2.; type: functional; conditions: read-out: IC50_Mean
T2 sequence (Q9HC16 whole entry): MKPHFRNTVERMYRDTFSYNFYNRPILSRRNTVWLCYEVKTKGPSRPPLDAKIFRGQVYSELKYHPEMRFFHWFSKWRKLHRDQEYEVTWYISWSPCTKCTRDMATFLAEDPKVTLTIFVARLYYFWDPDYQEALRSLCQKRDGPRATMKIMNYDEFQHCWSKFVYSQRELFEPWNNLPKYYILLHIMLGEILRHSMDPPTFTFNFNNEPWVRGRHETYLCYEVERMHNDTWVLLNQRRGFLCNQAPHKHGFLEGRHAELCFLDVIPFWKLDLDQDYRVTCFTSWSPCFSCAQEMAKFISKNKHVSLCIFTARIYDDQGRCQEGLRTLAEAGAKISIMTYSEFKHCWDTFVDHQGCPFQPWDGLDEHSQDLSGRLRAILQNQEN

[10] = target: T2, DNA dC->dU-editing enzyme APOBEC-3G; test: inhibition of APOBEC3G ssDNA deamination – biochemical, fluorescence, single-stranded DNA substrate, SAR follow-up (AID 602136); type: functional; conditions: read-out: IC50_Mean
[11] = Luminescence Cell-Based Dose Response HTS to Identify Inhibitors of 5'UTR Stem-Loop Driven Prion Protein mRNA Translation in H4 Neuroglioblastoma Cells. [Related pubchem assays: 1827 (Project Summary), 1813 (Primary HTS)]; type: functional
[12] = Trypanosoma cruzi growth suppression in host cells – NIH3T3 host cells, beta-gal luminescence, confirmation (AID 2044); type: functional, cell-based;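 also: intracellular parasites grown in NIH/3T3 mouse fibroblasts as host cells; luminescent beta-galactosidase reporter signal from transgenic T. cruzi replicating inside host cells; inhibitors lower the luminescence signal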
[13] = alpha-synuclein stem-loop luciferase translation blockers – H4 neuroglioma cells, luminescence, confirmation (AID 1988); type: functional, cell-based
[14] = target: T2, DNA dC->dU-editing enzyme APOBEC-3G; type: functional
INS1 = test: INS-1E survival protection against cytokine death – cell-based, luminescence, retest, dose response (AID 449756); type: functional; conditions: Rattus norvegicus;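 also: cell death triggered by IL-1 beta plus TNF-alpha plus IFN-gamma mixture; protective hits raise ATP signal compared with cytokine alone wells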
Cytochrome P450 2C9 = Cytochrome P450 2C9 (Homo sapiens, UniProt P11712)
[15] = target: T3, Glycogen synthase kinase-3 alpha (Homo sapiens, UniProt P49840); test: GSK3A enzyme blockers, homolog specificity check – biochemical, microfluidics, dry powder samples, set 2, selectivity assay for GSK3beta inhibitor project, dose response (AID 623978); type: functional
T3 sequence (P49840 whole entry): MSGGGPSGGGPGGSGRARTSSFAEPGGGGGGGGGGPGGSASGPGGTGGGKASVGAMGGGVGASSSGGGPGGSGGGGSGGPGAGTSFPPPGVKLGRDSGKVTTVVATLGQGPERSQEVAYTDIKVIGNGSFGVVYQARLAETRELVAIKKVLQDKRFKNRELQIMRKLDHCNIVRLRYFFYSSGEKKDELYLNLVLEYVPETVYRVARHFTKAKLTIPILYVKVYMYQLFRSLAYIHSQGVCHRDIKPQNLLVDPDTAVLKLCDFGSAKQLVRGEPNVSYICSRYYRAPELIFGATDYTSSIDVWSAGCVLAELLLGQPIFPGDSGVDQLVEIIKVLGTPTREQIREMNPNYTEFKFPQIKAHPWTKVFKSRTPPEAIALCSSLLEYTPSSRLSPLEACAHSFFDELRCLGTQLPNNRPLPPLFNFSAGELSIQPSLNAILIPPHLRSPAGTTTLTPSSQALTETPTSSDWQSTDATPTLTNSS

[16] = target: T4, Glycogen synthase kinase-3 beta (Homo sapiens, UniProt P49841); test: inhibition of human GSK3B activity – biochemical, microfluidics, dry powder samples, set 2, dose response (AID 623989); type: functional
T4 sequence (P49841 whole entry): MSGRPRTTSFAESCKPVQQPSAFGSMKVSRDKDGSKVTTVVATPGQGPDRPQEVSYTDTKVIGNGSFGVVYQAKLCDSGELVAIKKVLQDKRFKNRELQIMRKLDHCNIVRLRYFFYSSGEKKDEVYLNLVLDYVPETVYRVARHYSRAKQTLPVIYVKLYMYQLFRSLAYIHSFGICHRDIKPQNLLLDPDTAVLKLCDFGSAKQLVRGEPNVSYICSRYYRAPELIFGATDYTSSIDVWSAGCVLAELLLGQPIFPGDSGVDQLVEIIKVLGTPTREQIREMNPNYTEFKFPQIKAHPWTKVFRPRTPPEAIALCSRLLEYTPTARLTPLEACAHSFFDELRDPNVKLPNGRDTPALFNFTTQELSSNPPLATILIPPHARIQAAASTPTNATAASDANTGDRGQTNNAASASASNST

Cytochrome P450 2C19 = Cytochrome P450 2C19 (Homo sapiens, UniProt P33261); test: Cytochrome panel assay with activity outcomes. Panel member name: p450-cyp2c19 Compounds with AC50 equal or less than 10 uM are considered active; type: functional; conditions: read-out: AC50
[17] = target: BDNF/NT-3 growth factors receptor (Homo sapiens, UniProt Q16620); type: functional;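 also: NTRK2 measured as one member of a broad kinome-wide kinase profiling panel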
[18] = target: Mitogen-activated protein kinase kinase kinase kinase 5 (Homo sapiens, UniProt Q9Y4K4); type: functional;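 also: measured as one member of a kinome-spanning kinase panel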
[19] = target: T4, Glycogen synthase kinase-3 beta; type: functional
[20] = target: Tyrosine-protein kinase BTK (Homo sapiens, UniProt Q06187); type: functional
[21] = target: Serine/threonine-protein kinase TAO1 (Homo sapiens, UniProt Q7L7X3); type: functional
[22] = target: T3, Glycogen synthase kinase-3 alpha; type: functional
[23] = target: Fibroblast growth factor receptor 1 (Homo sapiens, UniProt P11362); type: functional
[24] = target: G protein-coupled receptor kinase 5 (Homo sapiens, UniProt P34947); test: Navigating the Kinome. Panel member name: GPRK5; type: functional
[25] = target: Tyrosine-protein kinase Lck (Homo sapiens, UniProt P06239); type: functional;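 also: lck was assayed as one member of a kinase panel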
[26] = target: Mitogen-activated protein kinase 14 (Homo sapiens, UniProt Q16539); type: functional;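 also: part of a kinome-wide panel, MAPK14 entry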
Mitogen-activated protein kinase 14, sequence (Q16539 whole entry): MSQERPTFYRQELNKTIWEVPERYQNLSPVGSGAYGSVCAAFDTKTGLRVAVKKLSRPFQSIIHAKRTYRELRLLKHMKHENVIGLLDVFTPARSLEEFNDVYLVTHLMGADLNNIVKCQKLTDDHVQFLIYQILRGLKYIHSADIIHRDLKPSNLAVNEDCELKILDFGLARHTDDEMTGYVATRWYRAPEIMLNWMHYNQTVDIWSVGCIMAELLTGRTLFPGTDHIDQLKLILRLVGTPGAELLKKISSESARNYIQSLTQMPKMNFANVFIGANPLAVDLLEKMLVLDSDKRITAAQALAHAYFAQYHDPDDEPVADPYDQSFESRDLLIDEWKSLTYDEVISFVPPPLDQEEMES

[27] = target: Inhibitor of nuclear factor kappa-B kinase subunit epsilon (Homo sapiens, UniProt Q14164); test: Navigating the Kinome. Panel member name: IKBKE; type: functional
[28] = target: Cyclin-dependent kinase 8 (Homo sapiens, UniProt P49336); test: Navigating the Kinome. Panel member name: CDK8; type: functional
[29] = target: Mitogen-activated protein kinase 9 (Homo sapiens, UniProt P45984); type: functional;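 also: value from a kinome panel profiling assay, MAPK9 panel entry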
Focal adhesion kinase 1 = Focal adhesion kinase 1 (Homo sapiens, UniProt Q05397); type: functional;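 also: measured as one member of a kinome panel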
Focal adhesion kinase 1, sequence (Q05397 whole entry): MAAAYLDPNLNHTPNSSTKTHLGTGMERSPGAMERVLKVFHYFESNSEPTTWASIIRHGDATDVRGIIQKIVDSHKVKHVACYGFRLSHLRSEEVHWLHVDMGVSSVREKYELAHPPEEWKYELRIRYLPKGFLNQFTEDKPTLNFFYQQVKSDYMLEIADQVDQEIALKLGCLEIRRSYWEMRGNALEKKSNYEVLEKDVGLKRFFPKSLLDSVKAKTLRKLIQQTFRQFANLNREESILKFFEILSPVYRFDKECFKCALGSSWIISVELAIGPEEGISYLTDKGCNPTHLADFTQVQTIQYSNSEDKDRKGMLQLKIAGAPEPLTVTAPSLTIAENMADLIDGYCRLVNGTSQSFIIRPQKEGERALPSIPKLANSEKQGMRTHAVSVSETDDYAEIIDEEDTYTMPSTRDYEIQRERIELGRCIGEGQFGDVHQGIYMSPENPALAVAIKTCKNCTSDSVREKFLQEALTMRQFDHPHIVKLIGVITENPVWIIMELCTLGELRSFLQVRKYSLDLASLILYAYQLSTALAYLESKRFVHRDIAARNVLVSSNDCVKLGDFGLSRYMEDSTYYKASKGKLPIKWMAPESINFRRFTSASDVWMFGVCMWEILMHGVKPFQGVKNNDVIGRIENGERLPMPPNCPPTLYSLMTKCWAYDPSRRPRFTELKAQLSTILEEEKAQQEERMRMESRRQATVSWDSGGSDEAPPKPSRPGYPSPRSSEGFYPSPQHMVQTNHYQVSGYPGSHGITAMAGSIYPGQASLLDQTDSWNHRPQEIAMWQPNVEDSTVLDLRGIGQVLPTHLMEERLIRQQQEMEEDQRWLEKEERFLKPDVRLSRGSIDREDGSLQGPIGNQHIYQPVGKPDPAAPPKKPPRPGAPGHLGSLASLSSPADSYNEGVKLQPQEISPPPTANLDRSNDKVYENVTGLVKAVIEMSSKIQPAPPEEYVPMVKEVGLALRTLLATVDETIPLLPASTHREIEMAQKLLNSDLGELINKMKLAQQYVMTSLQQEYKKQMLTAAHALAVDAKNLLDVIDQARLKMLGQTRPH

[30] = target: Serine/threonine-protein kinase N2 (Homo sapiens, UniProt Q16513); type: functional
[31] = target: Macrophage-stimulating protein receptor (Homo sapiens, UniProt Q04912); test: Navigating the Kinome. Panel member name: MST1R; type: functional
[32] = target: Vascular endothelial growth factor receptor 1 (Homo sapiens, UniProt P17948); type: functional;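 also: measured within a kinome-wide profiling panel, FLT1 as the panel member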
[33] = target: Mast/stem cell growth factor receptor Kit (Homo sapiens, UniProt P10721); type: functional;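 also: KIT entry within a kinase panel assay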
[34] = target: Ribosomal protein S6 kinase alpha-3 (Homo sapiens, UniProt P51812); type: functional;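 also: measured within a kinome-wide profiling panel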
[35] = target: ALK tyrosine kinase receptor (Homo sapiens, UniProt Q9UM73); type: functional;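 also: ALK tested as one member of a kinase panel screen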
[36] = target: Serine/threonine-protein kinase pim-1 (Homo sapiens, UniProt P11309); type: functional
Serine/threonine-protein kinase pim-1, sequence (P11309 whole entry): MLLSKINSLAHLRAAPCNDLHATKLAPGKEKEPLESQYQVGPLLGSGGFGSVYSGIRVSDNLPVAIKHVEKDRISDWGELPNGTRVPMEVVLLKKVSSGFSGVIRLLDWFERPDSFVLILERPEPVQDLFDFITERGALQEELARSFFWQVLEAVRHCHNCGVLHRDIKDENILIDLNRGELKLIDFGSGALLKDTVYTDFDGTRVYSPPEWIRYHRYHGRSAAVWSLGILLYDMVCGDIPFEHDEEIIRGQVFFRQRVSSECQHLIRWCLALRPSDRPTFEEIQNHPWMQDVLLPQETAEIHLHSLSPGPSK

[37] = target: Mitogen-activated protein kinase 8 (Homo sapiens, UniProt P45983); type: functional;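 also: value comes from one member of a kinome-wide kinase profiling panel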
Activated CDC42 kinase 1 = Activated CDC42 kinase 1 (Homo sapiens, UniProt Q07912); test: Navigating the Kinome. Panel member name: ACK1; type: functional
[38] = target: Dual specificity protein kinase CLK2 (Homo sapiens, UniProt P49760); type: functional
[39] = target: Mitogen-activated protein kinase kinase kinase kinase 4 (Homo sapiens, UniProt O95819); type: functional
Mitogen-activated protein kinase kinase kinase kinase 4, sequence (O95819 whole entry): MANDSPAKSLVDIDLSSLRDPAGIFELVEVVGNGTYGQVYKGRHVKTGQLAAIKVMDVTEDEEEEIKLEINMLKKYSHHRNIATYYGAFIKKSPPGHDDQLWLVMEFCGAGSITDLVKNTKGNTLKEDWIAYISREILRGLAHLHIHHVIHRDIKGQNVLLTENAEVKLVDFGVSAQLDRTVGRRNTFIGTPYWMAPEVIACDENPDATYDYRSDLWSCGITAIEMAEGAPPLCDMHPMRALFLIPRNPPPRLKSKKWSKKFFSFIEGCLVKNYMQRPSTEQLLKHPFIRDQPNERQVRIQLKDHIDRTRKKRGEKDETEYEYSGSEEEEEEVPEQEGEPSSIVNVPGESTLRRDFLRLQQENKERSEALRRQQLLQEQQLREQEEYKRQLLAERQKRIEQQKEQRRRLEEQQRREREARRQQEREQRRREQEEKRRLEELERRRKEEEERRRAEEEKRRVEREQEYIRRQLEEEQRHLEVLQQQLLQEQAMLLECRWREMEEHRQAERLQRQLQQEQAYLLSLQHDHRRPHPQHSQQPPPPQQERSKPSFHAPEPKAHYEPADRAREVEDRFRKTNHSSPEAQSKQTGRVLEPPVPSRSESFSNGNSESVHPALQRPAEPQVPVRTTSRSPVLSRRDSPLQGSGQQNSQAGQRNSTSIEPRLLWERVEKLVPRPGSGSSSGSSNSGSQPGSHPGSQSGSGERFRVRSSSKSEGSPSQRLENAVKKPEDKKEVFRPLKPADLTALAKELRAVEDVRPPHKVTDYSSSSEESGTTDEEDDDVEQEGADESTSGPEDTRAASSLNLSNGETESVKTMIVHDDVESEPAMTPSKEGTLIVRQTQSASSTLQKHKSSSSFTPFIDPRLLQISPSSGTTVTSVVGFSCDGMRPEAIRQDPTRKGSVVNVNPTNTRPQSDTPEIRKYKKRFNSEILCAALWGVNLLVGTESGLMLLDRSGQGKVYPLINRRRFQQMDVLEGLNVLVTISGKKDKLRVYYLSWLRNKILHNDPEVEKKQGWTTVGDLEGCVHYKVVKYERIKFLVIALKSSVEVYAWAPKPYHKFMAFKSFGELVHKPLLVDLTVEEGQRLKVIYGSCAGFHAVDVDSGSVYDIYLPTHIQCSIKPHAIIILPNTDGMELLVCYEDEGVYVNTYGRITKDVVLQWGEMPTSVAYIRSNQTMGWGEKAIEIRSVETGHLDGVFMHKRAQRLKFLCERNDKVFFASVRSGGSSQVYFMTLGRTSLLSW

[40] = target: Serine/threonine-protein kinase D3 (Homo sapiens, UniProt O94806); type: functional;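 also: determined within a kinase panel screen, with PRKCN as the panel member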
[41] = target: Tyrosine-protein kinase ABL1 (Homo sapiens, UniProt P00519); type: functional
[42] = target: Tyrosine-protein kinase JAK3 (Homo sapiens, UniProt P52333); type: functional
[43] = target: Death-associated protein kinase 3 (Homo sapiens, UniProt O43293); type: functional;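 also: measured as one member of a kinome-wide profiling panel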
[44] = target: Casein kinase I isoform alpha (Homo sapiens, UniProt P48729); type: functional
[45] = target: Calcium/calmodulin-dependent protein kinase type II subunit alpha (Homo sapiens, UniProt Q9UQM7); test: Navigating the Kinome. Panel member name: CAMK2A; type: functional
[46] = target: Tyrosine-protein kinase Fyn (Homo sapiens, UniProt P06241); type: functional
[47] = target: Dual specificity protein kinase CLK4 (Homo sapiens, UniProt Q9HAZ1); type: functional
[48] = target: Interleukin-1 receptor-associated kinase 4 (Homo sapiens, UniProt Q9NWZ3); type: functional
[49] = target: Cell division cycle 7-related protein kinase (Homo sapiens, UniProt O00311); type: functional;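 also: value obtained from a kinome-wide kinase panel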
[50] = target: Homeodomain-interacting protein kinase 2 (Homo sapiens, UniProt Q9H2X6); type: functional;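 also: measured within a kinome-wide kinase profiling panel, HIPK2 being one panel member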
[51] = target: cAMP-dependent protein kinase catalytic subunit alpha (Homo sapiens, UniProt P17612); type: functional
[52] = target: T5, Neuropeptides B/W receptor type 1 (Homo sapiens, UniProt P48145); test: human NPBW1 receptor blockade, IC50 – cell-based, fluorescence, dose response, set 5, late-stage follow-up (AID 588566); type: functional
T5 sequence (P48145 whole entry): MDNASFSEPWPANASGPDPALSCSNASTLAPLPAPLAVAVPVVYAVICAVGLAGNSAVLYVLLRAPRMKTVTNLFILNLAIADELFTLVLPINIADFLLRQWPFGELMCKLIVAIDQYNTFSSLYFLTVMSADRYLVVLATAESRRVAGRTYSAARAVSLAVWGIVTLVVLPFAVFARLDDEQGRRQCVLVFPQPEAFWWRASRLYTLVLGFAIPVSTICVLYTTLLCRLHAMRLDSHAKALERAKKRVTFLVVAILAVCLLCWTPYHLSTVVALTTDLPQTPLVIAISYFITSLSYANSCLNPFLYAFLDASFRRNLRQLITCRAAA

[53] = target: Melanin-concentrating hormone receptor 1 (Homo sapiens, UniProt Q99705); test: Late-stage fluorescence-based counterscreen for antagonists of the G-protein coupled receptor 7 (GPR7): cell-based dose response assay to identify antagonists of the melanin-concentrating hormone receptor 1 (MCHR1) Set 5.; type: functional

For `Cc1ccc2[nH]cc(/C=C/c3cc[n+](C)cc3)c2c1`, the IC50 [1] was > 99 µM (inactive), the EC50 [2] was 9.85 µM (active) and the IC50 [3] was 3.49 µM (active). For the same compound, the IC50 (Beta-lactamase [4]) was > 59.6 µM (inactive), the IC50 [5] was > 99 µM (inactive) and the AC50 [6] was 1.49 µM (active). The EC50 [7] was > 60 µM (not active), the IC50 (Beta-lactamase [8]) was 49.2 µM (inactive) and the IC50 [9] was > 99 µM (inactive). The IC50 [10] was > 99 µM (inactive), the EC50 [11] was 13.6 µM (active) and the EC50 [12] was 1.43 µM (active). The EC50 [13] was 12.2 µM (active), the IC50 [14] was > 100 µM (inactive) and the AC50 (INS1) was 4.88 µM (active).

With `COC(=O)C(C)Sc1ccc2nnc(-c3ccc(F)cc3)n2n1` (stereo unspecified) the AC50 (Cytochrome P450 2C9) was 3.55 µM (inconclusive), the AC50 [15] was 5.24 µM (active) and the AC50 [16] was 1.24 µM (active). The AC50 (Cytochrome P450 2C19) was 39.8 µM (inconclusive).

With `CC(C)C(CO)NC(=O)c1cccc(-n2nc(C(C)(C)C)cc2NC(=O)Nc2cccc3ccccc23)c1` (stereo unspecified) the Ki [17] was > 3.98 µM (inactive), the Ki [18] was > 3.98 µM (inactive) and the Ki [19] was > 3.98 µM (inactive). For the same compound, the Ki [20] was > 6.31 µM (inactive), the Ki [21] was > 6.31 µM (inactive) and the Ki [22] was > 3.98 µM (inactive). For the same compound, the Ki [23] was > 3.98 µM (inactive), the Ki [24] was > 3.98 µM (inactive) and the Ki [25] was > 6.31 µM (inactive). The Ki [26] was 398 nM (active) and 501 nM (active), the Ki [27] was > 3.16 µM (inactive) and the Ki [28] was 2.51 µM (active). The Ki [29] was 0.316 µM (active), the Ki (Focal adhesion kinase 1) was > 6.31 µM (inactive) and > 5.01 µM (inactive) and the Ki [30] was 0.398 µM (active). The Ki [31] was > 3.98 µM (inactive), the Ki [32] was > 3.98 µM (inactive) and the Ki [33] was > 3.98 µM (inactive). For the same compound, the Ki [34] was > 3.98 µM (inactive), the Ki [35] was > 6.31 µM (inactive) and the Ki [36] was > 6.31 µM (inactive). The Ki [37] was > 5.01 µM (inactive), the Ki (Activated CDC42 kinase 1) was > 3.98 µM (inactive) and the Ki [38] was > 3.98 µM (inactive). The Ki [39] was > 5.01 µM (inactive), the Ki [40] was > 3.98 µM (inactive) and the Ki [41] was > 3.98 µM (inactive). For the same compound, the Ki [42] was > 5.01 µM (inactive), the Ki [43] was > 5.01 µM (inactive) and the Ki [44] was > 3.98 µM (inactive). The Ki [45] was > 7.94 µM (inactive) and the Ki [46] was > 6.31 µM (inactive).

In the case of `Cc1cccc(CNc2cc(-c3c[nH]c4ncccc34)cc(Cl)n2)c1C`, the Ki [19] is reported as 0.0251 µM (active), the Ki [47] is reported as 0.00501 µM (active) and the Ki [48] is reported as > 10 µM (inactive). For the same compound, the Ki [49] was 0.00126 µM (active), the Ki [50] was 0.398 µM (active) and the Ki [36] was 0.501 µM (active). The Ki [51] was 0.158 µM (active) and the Ki [39] was 0.00398 µM (active).

In the case of `CCOc1c(F)cc(Oc2c(Cl)cnn(Cc3cccc4ccccc34)c2=O)cc1F`, the IC50 [52] is reported as 2.37 µM (active) and the IC50 [53] is reported as 9.19 µM (active).
